Measurements from patent publication US20220306606A1, “MODULATOR OF CYSTIC FIBROSIS TRANSMEMBRANE CONDUCTANCE REGULATOR, PHARMACEUTICAL COMPOSITIONS, METHODS OF TREATMENT, AND PROCESS FOR MAKING THE MODULATOR” (Vertex Pharmaceuticals Incorporated, priority 2016, published 2022).
Entries after “also recorded” stand apart in the source; their conditions may differ. Read-outs that look alike come from different tables or passages of the source. Blank lines part the entries; values can stand above or below the molecule they belong to.

How the values were obtained:
Rat IV and PO PK studies = format: in vivo; details: male Sprague-Dawley rats, oral 3 mg/kg
Protocol: 5C. Experimental Protocol for Rat IV and PO PK Studies
The tested compound was administered to male Sprague-Dawley rats as a single nominal intravenous dose of 3.0 mg/kg as a solution in 10% NMP, 10% solutol, 15% EtOH, 35% PEG400 and 30% D5W. The tested compound was also administered to male Sprague-Dawley rats at single nominal oral dose of 3 mg/kg as a solution in 5% NMP, 30% PEG400, 10% TPGS, 5% PVP-K30 at 5 mL/kg dose volume. Analyses of plasma and dose preparations were performed using LC/MS/MS.
Plasma concentration-time profiles of the tested compound in Sprague-Dawley rats at scheduled (nominal) sampling times were analyzed by noncompartmental pharmacokinetic methods using PK function within Watson LIMS software, Version 7.4.2 (Thermo Scientific Inc, Waltham, Mass.). AUC values were calculated using the linear trapezoidal rule.

F508del-CFTR [1] = biological target: T1, F508del-CFTR (Homo sapiens, UniProt P13569, DEL508-508); test: Ussing chamber chloride transport in HBE cells; format: cell-based; set-up: CF-HBE were isolated from patients homozygous for F508del; endogenous in cells; host or cells: primary human bronchial epithelial (HBE) cells, F508del/F508del
T1 sequence (P13569 with tags, fused parts or gaps DEL508-508): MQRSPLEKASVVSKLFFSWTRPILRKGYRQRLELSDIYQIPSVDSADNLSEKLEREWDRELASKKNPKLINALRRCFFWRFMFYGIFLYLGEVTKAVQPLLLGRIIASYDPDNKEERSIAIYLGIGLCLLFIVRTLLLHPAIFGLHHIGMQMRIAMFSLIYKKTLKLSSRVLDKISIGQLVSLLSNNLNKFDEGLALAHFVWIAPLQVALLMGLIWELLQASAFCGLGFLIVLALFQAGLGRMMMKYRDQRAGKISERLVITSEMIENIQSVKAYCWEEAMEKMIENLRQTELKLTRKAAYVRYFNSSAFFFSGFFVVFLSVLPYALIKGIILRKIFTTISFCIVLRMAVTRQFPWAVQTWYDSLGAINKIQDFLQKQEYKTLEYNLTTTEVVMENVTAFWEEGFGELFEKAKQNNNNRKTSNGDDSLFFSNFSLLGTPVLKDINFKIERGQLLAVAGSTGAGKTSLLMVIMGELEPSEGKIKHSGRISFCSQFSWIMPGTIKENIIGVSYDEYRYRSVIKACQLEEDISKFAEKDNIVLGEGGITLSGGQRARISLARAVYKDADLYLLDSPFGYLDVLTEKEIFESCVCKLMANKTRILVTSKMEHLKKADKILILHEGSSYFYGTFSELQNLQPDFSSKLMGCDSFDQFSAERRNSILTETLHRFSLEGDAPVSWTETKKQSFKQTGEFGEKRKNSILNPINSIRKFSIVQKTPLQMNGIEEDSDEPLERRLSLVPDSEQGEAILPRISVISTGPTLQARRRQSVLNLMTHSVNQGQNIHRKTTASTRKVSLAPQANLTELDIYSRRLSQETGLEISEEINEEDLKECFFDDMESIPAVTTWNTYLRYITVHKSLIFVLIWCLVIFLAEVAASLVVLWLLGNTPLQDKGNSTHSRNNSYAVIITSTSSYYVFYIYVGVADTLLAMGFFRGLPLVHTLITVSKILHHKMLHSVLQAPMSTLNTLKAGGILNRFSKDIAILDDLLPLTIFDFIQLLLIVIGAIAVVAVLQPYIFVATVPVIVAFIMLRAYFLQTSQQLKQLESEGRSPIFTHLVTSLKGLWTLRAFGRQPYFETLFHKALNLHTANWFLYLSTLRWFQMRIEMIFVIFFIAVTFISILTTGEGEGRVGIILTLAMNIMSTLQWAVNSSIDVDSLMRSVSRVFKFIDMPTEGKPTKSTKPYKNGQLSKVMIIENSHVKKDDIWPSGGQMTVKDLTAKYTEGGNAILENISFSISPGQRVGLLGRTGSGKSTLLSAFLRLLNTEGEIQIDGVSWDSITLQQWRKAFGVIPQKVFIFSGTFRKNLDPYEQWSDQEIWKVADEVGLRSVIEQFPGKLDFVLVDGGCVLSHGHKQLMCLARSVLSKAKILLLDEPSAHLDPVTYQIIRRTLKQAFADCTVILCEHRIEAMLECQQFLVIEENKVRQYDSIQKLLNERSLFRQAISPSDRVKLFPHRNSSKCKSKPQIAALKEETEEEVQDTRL
Protocol: Ussing chamber experiments were performed on polarized airway epithelial cells expressing F508del to further characterize the F508del modulators identified in the optical assays. Non-CF and CF airway epithelia were isolated from bronchial tissue, cultured as previously described (Galietta, L. J. V., Lantero, S., Gazzolo, A., Sacco, O., Romano, L., Rossi, G. A., & Zegarra-Moran, O. (1998) In Vitro Cell Dev. Biol. 34, 478-481), and plated onto Costar® Snapwell™ filters that were precoated with NIH3T3-conditioned media. After four days the apical media was removed and the cells were grown at an air liquid interface for >14 days prior to use.
HBE grown on Costar® Snnapwell™ cell culture inserts were mounted in an Ussing chamber (Physiologic Instruments, Inc., San Diego, Calif.), and the transepithelial resistance and short-circuit current in the presence of a basolateral to apical […] gradient (ISC) were measured using a voltage-clamp system (Department of Bioengineering, University of Iowa, Iowa). Briefly, HBE were examined under voltage-clamp recording conditions (Vhold=0 mV) at 37° C. The basolateral solution contained (in mM) 145 NaCl, 0.83 K2HPO4, 3.3 KH2PO4, 1.2 MgCl2, 1.2 CaCl2, 10 Glucose, 10 HEPES (pH adjusted to 7.35 with NaOH) and the apical solution contained (in mM) 145 NaGluconate, 1.2 MgCl2, 1.2 CaCl2, 10 glucose, 10 HEPES (pH adjusted to 7.35 with NaOH).
5A-A2. […]

F508del-CFTR [2] = biological target: T1, F508del-CFTR; test: F508del-CFTR processing and trafficking in vitro (170 to 180 kDa band); format: cell-based; set-up: CF-HBE were isolated from patients homozygous for F508del; endogenous in cells; host or cells: primary human bronchial epithelial (HBE) cells, F508del/F508del
Protocol: The CFTR protein delivered to the cell surface by Compound 1 alone or in combination with Compound II (Compound 1/Compound II) was potentiated by Compound III.
Incubation of F508del/F508del-HBE cells for 16 to 24 hours with 1 μM Compound 1 alone or in combination with […].

F508del-CFTR [3] = biological target: T1, F508del-CFTR; test: Membrane potential optical (FLIPR) assay for F508del-CFTR modulators; format: cell-based; set-up: expressed in transfected cells; details: read-out: CFTRdF508 EC50
Source text: Membrane Potential Optical Methods for Assaying Properties of F508del-CFIR Modulators
The assay utilizes fluorescent voltage sensing dyes to measure changes in membrane potential using a fluorescent plate reader (e.g., FLIPR III, Molecular Devices, Inc.) as a readout for increase in functional F508del in NIH 3T3 cells.
5A-A1. Identification of F508del-CTTR Modulators
To identify modulators of F508del, a fluorescence based HTS assay format was developed. This HTS assay utilizes fluorescent voltage sensing dyes to measure changes in membrane potential on the FLIPR III as a measurement for increase in gating (conductance) of F508del NIH 3T3 cells.
Bath Solution #1: (in mM) NaCl 160, KCl 4.5, CaCl2 2, MgCl2 1, HEPES 10, pH 7.4 with NaOH, Glucose 10.
Chloride-free bath solution: Chloride salts in Bath Solution #1 (above) are substituted with gluconate salts.
NIH3T3 mouse fibroblasts stably expressing F508del are used for optical measurements of membrane potential. The cells are maintained at 37° C. in 5% CO2 and 90% humidity in Dulbecco's modified Eagle's medium supplemented with 2 mM glutamine, 10% fetal bovine serum, 1×NEAR, β-ME, 1×pen/strep, and 25 mM HEPES in 175 cm^2 culture flasks, For all optical assays, the cells were seeded at 12,000 cells/well in 384-well matrigel-coated plates and cultured for 18-24 hrs at 37° C. for the potentiator assay. For the correction assays, the cells are cultured at 37° C. with and without compounds for 18-24 hours.

[4] = biological target: T2, Human Serum Albumin (HSA) (Homo sapiens, UniProt P02768); test: Chromatographic determination of Human Serum Albumin (HSA) binding; format: in vitro ADME; details: ChiralPak HSA column retention time converted to % HSA
T2 construct: purchased Sigma Aldrich 58469AST
T2 sequence (P02768 25-609): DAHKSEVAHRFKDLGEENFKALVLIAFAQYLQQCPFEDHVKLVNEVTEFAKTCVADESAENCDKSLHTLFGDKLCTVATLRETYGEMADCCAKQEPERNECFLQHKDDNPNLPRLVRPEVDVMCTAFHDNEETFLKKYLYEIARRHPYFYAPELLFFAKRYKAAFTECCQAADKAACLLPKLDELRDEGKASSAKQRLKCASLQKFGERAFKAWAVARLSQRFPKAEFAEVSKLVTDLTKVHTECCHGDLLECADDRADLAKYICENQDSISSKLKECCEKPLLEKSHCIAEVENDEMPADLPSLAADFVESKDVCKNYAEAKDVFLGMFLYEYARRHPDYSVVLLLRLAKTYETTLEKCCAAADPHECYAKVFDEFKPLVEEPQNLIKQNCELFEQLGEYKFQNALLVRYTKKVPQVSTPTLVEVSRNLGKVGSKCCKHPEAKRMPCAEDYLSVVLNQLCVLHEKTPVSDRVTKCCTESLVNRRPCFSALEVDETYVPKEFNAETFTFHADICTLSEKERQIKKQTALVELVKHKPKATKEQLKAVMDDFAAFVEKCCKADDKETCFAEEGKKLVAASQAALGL
Protocol: 5B. Chromatographic Determination of Human Serum Albumin (HSA) Assay
Chromatographic determination of Human Serum Albumin (HSA) values was performed on a UPLC-MS system using a ChiralPak® HSA column (p/n: 58469AST) from Sigma Aldrich. Mobile phase A consisted of 50 mM ammonium acetate buffer in water adjusted to pH=7.4, and mobile phase B was 2-propanol. The column compartment was kept at constant temperature of 30° C. Determination of retention time on the HSA column was performed by injecting […] of 0.5 mM of compound (in DMSO) using a linear gradient from 0%-30% B in 2.5 minutes, followed by a hold at 30%B for 2 minutes, and the final equilibration step from 30%-0% B in 1.5 minutes, for a total run time of 6 minutes. Flow rate was kept constant throughout the gradient and set to 1.8 mL/min. Compound retention time on the HSA column was converted to % HSA values according to a previously published protocol (Valko, et. al, 2003) correlating column retention times to standard plasma protein binding (PPB) values obtained from dialysis experiments. HSA data for certain compounds are summarized below in Table 8 below.
Valko, K., Nunhuck, S., Bevan, C., Abraham, M. H., Reynolds, D. P. Fast Gradient HPLC Method to Determine Compounds Binding to Human Serwn Albumin. Relationships with Octanol/Water and. Immobilized Artificial Membrane Lipophilicity. J. of Pharm. Sci. 2003, 92, 2236-2248.

[5] = Table 6, F508del NIH 3T3 cells, assay of Example 5A-A1

SMILES: C[C@@H]1CN(c2nc(-n3ccc(OCC(C)(C)C)n3)ccc2C(=O)NS(=O)(=O)c2cccnc2N)C(C)(C)C1 [Comp. A, reference compound]
- Rat po % F (Rat IV and PO PK studies): 28%

SMILES: C[C@@H]1CN(c2nc(-n3ccc(OCCC4(C(F)(F)F)CC4)n3)ccc2C(=O)NS(=O)(=O)c2ccccc2)C(C)(C)C1 [Compound 1, N-(benzenesulfonyl)-6-[3-[2-[1-(trifluoromethyl)cyclopropyl]ethoxy]pyrazol-1-yl]-2-[(4S)-2,2,4-trimethylpyrrolidin-1-yl]pyridine-3-carboxamide]
- Rat po % F (Rat IV and PO PK studies): 63%
- chloride transport (F508del-CFTR [1]; Ussing Chamber, F508del/F508del-HBE cells, listed as Compound I): enhanced chloride transport; also recorded: additive to the effect of Compound II
- steady-state levels, fold of untreated levels (F508del-CFTR [2]; F508del/F508del-HBE cells, 16 to 24 hours, 1 μM Compound 1 alone): 6.5 fold
- processing and trafficking of F508del-CFTR (F508del-CFTR [2]; in vitro): CFTR corrector

SMILES: CC1CC(C)(C)N2c3nc(-n4ccc(OCCC5(C(F)(F)F)CC5)n4)ccc3C(=O)OC12 (stereo not shown)
- EC50 (F508del-CFTR [3]; Table 7, Compound 1 and its metabolites): > 30000 nM

SMILES: C[C@@H]1CN(c2nc(-n3ccc(OCC4(C(F)(F)F)CC4)n3)ccc2C(=O)NS(=N)(=O)c2ccccc2)C(C)(C)C1 (mixture of isomers)
- HSA binding [4]: 98.%

The remaining lines, values ahead:

- Rat po % F (Rat IV and PO PK studies): 58%
SMILES: C[C@@H]1CN(c2nc(-n3ccc(OCC4(C(F)(F)F)CC4)n3)ccc2C(=O)NS(=O)(=O)c2ccccc2)C(C)(C)C1 [Compound 14, N-(Benzeuesulfonyl)-6-[3-[[1-(trifluoromethyl)cyclopropyl]methoxy]pyrazol-1-yl]-2-[(4S)-2,2,4-trimethylpyrrolidin-1-yl]pyridine-3-carboxamide]

- Rat po % F (Rat IV and PO PK studies): 50%
SMILES: C[C@@H]1CN(c2nc(-n3ccc(OCCC4(C(F)(F)F)CC4)n3)ccc2C(=O)NS(=O)(=O)c2cccc(F)c2)C(C)(C)C1 [Compound 5]

- EC50 (F508del-CFTR [3]; [5]): 100 to 1000 nM
SMILES: C[C@@H]1CN(c2nc(-n3ccc(OCC4(C(F)(F)F)CC4)n3)ccc2C(=O)NS(=O)(=O)c2ccc(F)cc2)C(C)(C)C1 [Compound 52, N-(4-fluorophenyl)sulfonyl-6-[3-[[1-(trifluoromethyl)cyclopropyl]methoxy]pyrazol-1-yl]-2-[(4S)-2,2,4-trimethylpyrrolidin-1-yl]pyridine-3-carboxamide]

- potentiation of F508del-CFTR delivered to the cell surface (F508del-CFTR [1]; CFTR delivered by Compound 1 alone or in combination with Compound II): potentiated
SMILES: CC(C)(C)c1cc(C(C)(C)C)c(NC(=O)c2c[nH]c3ccccc3c2=O)cc1O [Compound III, N-(5-hydroxy-2,4-di-tert-butyl-phenyl)-4-oxo-1H-quinoline-3-carboxamide, reference compound]

- Rat po % F (Rat IV and PO PK studies): 41%
SMILES: C[C@@H]1CN(c2nc(-n3ccc(OCC4(C(F)(F)F)CCC4)n3)ccc2C(=O)NS(=O)(=O)c2ccccc2)C(C)(C)C1 [Compound 10, N-(Benzenesulfonyl)-6-[3-[[1-(trifluoromethyl)cyclobutyl]methoxy]pyrazol-1-yl]-2-[(4S)-2,2,4-trimethylpyrrolidin-1-yl]pyridine-3-carboxamide]

- EC50 (F508del-CFTR [3]; [5]): < 100 nM
SMILES: C[C@@H]1CN(c2nc(-n3ccc(OCC4(C(F)(F)F)CC4)n3)ccc2C(=O)NS(=O)(=O)c2ccccc2C#N)C(C)(C)C1 [Compound 26, N-(2-Cyanophenyl)sulfonyl-6-[3-[[1-(trifluoromethyl)cyclopropyl]methoxy]pyrazol-1-yl]-2-[(4S)-2,2,4-trimethylpyrrolidin-1-yl]pyridine-3-carboxamide]
